Measurements from patent US12662478B2, “ATF6 modulators and uses thereof” (Altos Labs, Inc., priority 2019, dated 2026).
Where two headings read alike, the source gives them in different places.

Legend:
[1] = biological target: T1, ATF6 (Homo sapiens, UniProt P18850); assay: ERSE ATF6-luciferase assay in absence of ER stress (U2-OS ATF6 TRE-luciferase reporter cells); assay type: cell-based; settings: normalized to maximal activation with Tg; for activation at 1 µM / activation at 10 µM: U2OS, 8 h; for activation at 10 µM / ATF6 activity @ 10 μM - No Tg [%]: 10 μM test compound; for ATF6 activity @ 1 μM-No Tg [%] / ATF6 activity @ 10 μM - No Tg [%]: Table 3-3
T1 construct: endogenous in cells; host or cells: U2-OS (ATCC HTB-96) stably transduced with the Cignal Lenti ATF6 luc reporter (Qiagen #CLS-6031L)
T1 sequence (P18850 1-670): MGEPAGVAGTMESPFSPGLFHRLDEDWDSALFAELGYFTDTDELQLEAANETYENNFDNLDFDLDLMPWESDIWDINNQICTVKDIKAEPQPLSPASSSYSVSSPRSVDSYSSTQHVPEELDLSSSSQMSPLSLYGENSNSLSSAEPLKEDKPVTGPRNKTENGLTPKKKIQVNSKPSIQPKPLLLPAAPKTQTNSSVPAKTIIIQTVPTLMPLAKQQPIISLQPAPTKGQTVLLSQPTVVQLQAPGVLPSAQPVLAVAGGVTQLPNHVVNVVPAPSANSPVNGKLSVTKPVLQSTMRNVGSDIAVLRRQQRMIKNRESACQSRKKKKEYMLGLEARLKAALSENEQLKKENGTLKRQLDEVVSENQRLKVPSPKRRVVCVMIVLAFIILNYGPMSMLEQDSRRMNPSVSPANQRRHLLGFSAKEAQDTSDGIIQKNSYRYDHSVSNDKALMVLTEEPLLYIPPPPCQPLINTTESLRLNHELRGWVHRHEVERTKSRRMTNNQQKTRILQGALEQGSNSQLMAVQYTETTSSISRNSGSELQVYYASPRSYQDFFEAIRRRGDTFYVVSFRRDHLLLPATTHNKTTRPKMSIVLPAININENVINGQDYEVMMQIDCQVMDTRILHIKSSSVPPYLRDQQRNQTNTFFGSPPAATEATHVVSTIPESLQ
Description: (§1) To understand how exemplary compounds of the invention modulate the activity of ATF6 in absence or presence of endoplasmic reticulum (ER) stress, a Human bone osteosarcoma (U2-OS)-based TRE-luciferase reporter stable cell line was generated to determine the modulation of transcription of ATF6 target genes.
(§2) U2-OS cells were obtained from the American Type Culture Collection (ATCC HTB-96, ATCC Manassas, VA) and were cultured with growing medium containing Dulbecco's Modified Eagle's Medium (DMEM) (Cat. No.: SH30023.02, HyClone) supplemented with fetal bovine serum (FBS) 10% (Cat. No.: 16000044, Gibco) and 1% penicillin-streptomycin antibiotic cocktail (Cat. No.: SV30010, Hyclone).
(§3) Cignal Lenti ATF6 luc reporter (Qiagen #CLS-6031L) was used to produce a stable cell line in U2-OS cells (U2-OS ATF6 TRE-luciferase reporter). The lenti ATF6 reporter is a preparation of replication incompetent, VSV-g pseudotyped lentivirus particles expressing the firefly luciferase gene under the control of a minimal (m)CMV promoter and tandem repeats of the ATF6 transcriptional response element (TRE). The number of response elements as well as the intervening sequence between response elements has been experimentally optimized to maximize the signal to noise ratio.
(§4) Exemplary compounds of the invention and reference compounds were prepared from powder as 10 mM stock solutions in dimethyl sulfoxide (DMSO; Cat. No. #D2650, Sigma Aldrich) and stored at −80° C. in presence of N2 neutral atmosphere.
(§5) For the primary screening, 40,000 U2-OS ATF6 TRE-luciferase reporter cells were plated in poly-D-lysine (Cat. No.: P2636, Sigma) pre-coated white 96-well plates (Thermo Scientific Nunc #136101) with 100 μL of growing medium. Cells were incubated in humidified chambers for 24 hr.
For testing exemplary compounds in absence of ER-stress, cells were treated for 8 hr with 100 μL growing medium containing either vehicle (DMSO), 1 or 10 μM test compound or 0.1 μM Tg. The final concentration of DMSO in each well was kept at 0.3%. Plates were incubated in humidified chambers.
After 8 hr of incubation, plates were cooled down to room temperature for 10 min prior to luciferase assays. Luciferase reactions were performed as above. Luminescence was read by integration of 1 s with a gain of 110 in a Synergy 4 Microplate reader. All measurements were carried out in triplicate.
The average activity determined from the wells containing vehicle only (DMSO, 0% of ATF6 activity) was used as blank and subtracted from the rest of measurements. The percentage of modulation of exemplary compound was calculated by normalizing values to potential maximal activation with Tg.
ATF6 activities of exemplary compounds at 1 and 10 μM in absence of Tg-induced ER stress in the U2-OS ATF6 TRE-luciferase reporter cells were determined and are shown in Table 3-2, and Table 3-3.

[2] = biological target: T1, ATF6; assay: ERSE ATF6-luciferase assay in presence of Tg-induced ER stress (U2-OS ATF6 TRE-luciferase reporter cells); assay type: cell-based; settings: in presence of ER stress (thapsigargin), Tg only = 100%; for ATF6 activity @ 1 μM [%] / activity at 1 µM: 1 μM test compound; for ATF6 activity @ 1 μM [%] / ATF6 activity @ 10 μM [%]: 8 hr; for activity at 10 µM / activity at 1 µM: U2OS, 8 h; for activity at 10 µM / ATF6 activity @ 10 μM [%]: 10 μM test compound
Description: as §1, §2, §3, §4, §5
For testing exemplary compounds in presence of ER-stress, cells were pre-treated for 30 min with 50 μL growing medium containing either vehicle (DMSO), 1 or 10 μM test compound. After this pre-incubation, 50 μL of a solution containing 0.2 μM of the ER stress-inducer thapsigargin (Tg) was added to the appropriate wells. The Tg solution also contains vehicle or test compounds at 1 or 10 μM as indicated. The final concentration of DMSO in each well was kept at 0.3%. Plates were incubated for 8 hr in humidified chambers.
After the 8 hr incubation, plates were cooled down to room temperature for 10 min prior to the luciferase assays. Luciferase reactions were performed using Luciferase Assay System (Cat. No.: E4550, Promega). Briefly, each well was washed with 100 μl of PBS 1× and, then, 20 μl of lysis reagent was added into each well. Plates were shaken for 10 min and, then, 50 μl of Luciferase Assay Reagent was added to each well. Luminescence was determined by integration of 1 s with a gain of 110 in a Synergy 4 Microplate reader. All measurements were carried out in triplicate.
The average activity determined from the wells containing vehicle only (DMSO, 0% of ATF6 activity) was used as blank and subtracted from the rest of measurements. The average activity determined from the wells containing Tg only was used as 100% of ATF6 activity. The percentage of modulation of exemplary compounds was calculated by normalizing values to potential maximal activation with Tg.
ATF6 activities of exemplary compounds at 1 and 10 μM in presence Tg-induced ER stress tested in the U2-OS ATF6 TRE-luciferase reporter cells were determined and are shown in Table 2-2 and Table 3-2.

[3] = 1 μM test compound, in absence of ER stress (no Tg), Table 3-3, read-out: ATF6 activity @ 1 μM-No Tg [%]
[4] = in absence of ER stress (no Tg), Table 3-3, read-out: ATF6 activity @ 10 μM - No Tg [%]
[5] = 1 μM test compound, in absence of ER stress (no Tg), 8 hr
[6] = in absence of ER stress (no Tg), 8 hr

Row | activation at 1 µM [1, 3] [%] | activity at 10 µM ([2]; Table 2-3) [%] | Compound | ATF6 activity @ 1 μM [%] ([2]; Table 2-3) | ATF6 activity @ 1 μM-No Tg [%] [1, 5] | ATF6 activity @ 10 μM - No Tg [%] [1, 6] | ATF6 activity @ 10 μM [%] ([2]; Table 2-3) | also measured
1 | 0 to 25 | 125 to 150 | CC(C1CCCC1)n1cc(NC(=O)c2cc(-c3ccco3)on2)cn1 (single isomer, unassigned) [Compound 3-17, N-(1-(1-cyclopentylethyl)-1H-pyrazol-4-yl)-5-(furan-2-yl)isoxazole-3-carboxamide] | ++ (++ refers to 125% < % activity < 150% at 1 or 10 μM test compound) | – | – | – | activation at 10 µM [1, 4]: 0 to 25%
2 | – | – | CC(C1CCCC1)n1cc(NC(=O)c2cc(-c3ccco3)on2)cn1 (single isomer, unassigned) [Compound 3-18, N-(1-(1-cyclopentylethyl)-1H-pyrazol-4-yl)-5-(furan-2-yl)isoxazole-3-carboxamide] | + (+ refers to 100% < % activity < 125% at 1 or 10 μM) | + (+ refers to 0% < % activity < 25% at 1 or 10 μM test compound) | + (+ refers to 0% < % activity < 25% at 1 or 10 μM test compound) | ++ (++ refers to 125% < % activity < 150% at 1 or 10 μM test compound) | –
3 | 0 to 25 | > 150 | O=C(Nc1cnn(C2CCOC2)c1)c1cc(-c2ccccn2)on1 (single isomer, unassigned) [Compound 3-20, 5-(pyridin-2-yl)-N-(1-(tetrahydrofuran-3-yl)-1H-pyrazol-4-yl)isoxazole-3-carboxamide] | + (+ refers to 100% < % activity < 125% at 1 or 10 μM) | – | + (+ refers to 0% < % activity < 25% at 1 or 10 μM test compound) | – | –
4 | – | – | O=C(Nc1cnn(C2CCOC2)c1)c1cc(-c2ccccn2)on1 (single isomer, unassigned) [Compound 3-21, 5-(pyridin-2-yl)-N-(1-(tetrahydrofuran-3-yl)-1H-pyrazol-4-yl)isoxazole-3-carboxamide] | +++ (+++ refers to >150% at 1 or 10 μM test compound) | + (+ refers to 0% < % activity < 25% at 1 or 10 μM test compound) | ++ (++ refers to 25% < % activity < 50% at 1 or 10 μM test compound) | +++ (+++ refers to >150% at 1 or 10 μM test compound) | –
5 | – | > 150 | O=C(Nc1cnn(C2CCOC2)c1)c1cc(-c2cccs2)on1 (single isomer, unassigned) [Compound 3-22, N-(1-(tetrahydrofuran-3-yl)-1H-pyrazol-4-yl)-5-(thiophen-2-yl)isoxazole-3-carboxamide] | ++ (++ refers to 125% < % activity < 150% at 1 or 10 μM test compound) | + (+ refers to 0% < % activity < 25% at 1 or 10 μM test compound) | ++ (++ refers to 25% < % activity < 50% at 1 or 10 μM test compound) | – | –
6 | – | – | O=C(Nc1cnn(C2CCOC2)c1)c1cc(-c2cccs2)on1 (single isomer, unassigned) [Compound 3-23, N-(1-(tetrahydrofuran-3-yl)-1H-pyrazol-4-yl)-5-(thiophen-2-yl)isoxazole-3-carboxamide] | +++ (+++ refers to >150% at 1 or 10 μM test compound) | ++ (++ refers to 25% < % activity < 50% at 1 or 10 μM test compound) | +++ (+++ refers to % activity >50 % at 1 or 10 μM test compound) | +++ (+++ refers to >150% at 1 or 10 μM test compound) | –
7 | – | – | O=C(Nc1cnn(Cc2ccc(C(F)(F)F)cc2)c1)c1cc(-c2ccco2)on1 [Ceapin-A8, reference compound] | + (+ refers to 100% < % activity < 125% at 1 or 10 μM) | – | – | − (− refers to 75% < % activity < 100% at 1 or 10 μM) | ATF6 activity @ 1 μM [%] ([1]; 1 μM test compound, in absence of ER stress, 8 hr, Table 3-2): + (+ refers to 0% < % activity < 25% at 1 or 10 μM test compound); ATF6 activity @ 1 μM [%] ([2]; Table 2-2): + (+ refers to 100% < % activity < 125% at 1 or 10 μM); ATF6 activity @ 10 μM [%] ([2]; Table 2-2): − (− refers to 75% < % activity < 100% at 1 or 10 μM)
8 | – | – | CC(c1c(Cl)cccc1Cl)n1cc(C#Cc2nnc(-c3ccccn3)s2)cn1 (stereo not shown) [Compound 2-20, 2-((1-(1-(2,6-dichlorophenyl)ethyl)-1H-pyrazol-4-yl)ethynyl)-5-(pyridin-2-yl)-1,3,4-thiadiazole] | – | – | – | – | activation at 1 µM ([1]; 1 μM test compound, in absence of ER stress, Table 3-2, read-out: ATF6 activity @ 1 μM [%]): 0 to 25%; activation at 10 µM ([1]; in absence of ER stress, Table 3-2, read-out: ATF6 activity @ 10 μM [%]): 0 to 25%; activity at 1 µM ([2]; Table 2-2): 75 to 100%; activity at 10 µM ([2]; Table 2-2): 100 to 125%
9 | 0 to 25 | > 150 | O=C(Nc1cnn(C2CCCC2)c1)c1cc(-c2ccco2)on1 [Compound 3-1, N-(1-cyclopentyl-1H-pyrazol-4-yl)-5-(furan-2-yl)isoxazole-3-carboxamide] | – | – | – | – | activation at 10 µM [1, 4]: 0 to 25%; activity at 1 µM ([2]; Table 2-3): > 150%
